Reference: US8192962B2, “Processes for detecting toxic substances” (Daikin Industries, Ltd., priority 2001, dated 2012)

Test system: Metabolism protein genes
Test: DNA chip mRNA expression in yeast, metabolism protein genes (Table 7)
Type: cell-based, Saccharomyces cerevisiae S288C
Protocol: Yeast (Saccharomyces cerevisiae S288C (α SUC2mal mel gap2 CUP1)) were incubated at 25° C. on YPD medium (yeast extract 1%, polypepton 2%, glucose 2%). One of toxic chemical substances was added to the cells at logarithmic growth phase, and the cells were further incubated for two hours. Cells were cultured without any chemical substance in the same condition, and were used as control. Concentrations of the chemical substances were defined to inhibit the growth of the yeast but not lead to death.
After completion of the incubation, the culture was centrifuged to collect the cells. To the cells, sodium acetate buffer (50 mM sodium acetate, 10 mM EDTA, 1% SDS) was added, and the mixture was shaken at 65° C. for five minutes, followed by returning to room temperature, and obtaining the supernatant, of which the procedures were repeated two times. To the supernatant, ½ amount of a solution of phenol/chloroform was added, and the mixture was centrifuged to give a supernatant, which was added with an equal amount of chloroform, and the mixture was centrifuged to give a supernatant. To the supernatant, an equal amount of isopropanol containing 0.3 M sodium acetate was added, and the mixture was allowed to stand at room temperature for 30 minutes, after which the mixture was centrifuged to give a sediment of the whole RNAs. Seventy % ethanol was added to the sediment, and the mixture was again centrifuged to give a sediment, which was then dried and dissolved in water. mRNA was isolated from the whole RNAs as followings. In view of the fact that a poly A chain is attached to the 3′ terminus of mRNA, a polynucleotide having a poly T structure which was immobilized on the surface of latex beads was used to trap the mRNA, and then the mRNA was washed and eluted with spine column (Oligotex-dT30<Super>mRNA Purification Kit, Takara). Reverse transcription of the mRNA was conducted with a reverse transcriptase (Super Script II Reverse Transcriptase; catalogue No. 18064-014, GibcoBRL) using fluorescence-labeled nucleotides to give cDNAs that were introduced with Cy3-dUTP or Cy5-dUTP during the reverse transcription.
The labeled cDNAs were dissolved in TE buffer (10mM Tris-HCl/1 mM EDTA, pH8.0), and the solution was dropped on the DNA chip containing the whole genes of yeast (DNA Chip Research Inc. Japan) so that the cDNAs were hybridized on the DNA chip at 65° C. for over 12 hours. The fluoresces intensity of the DNA chip was read with a scanner, and the ratio relative to the fluorescence intensity resulting from the absence of chemical substance was estimated as the following, which is shown in Tables 1 to 9: […]

Cl[C@H]1[C@H](Cl)[C@@H](Cl)[C@@H](Cl)[C@H](Cl)[C@H]1Cl [(7), γ-hexachlorocyclohexane]
1.2: The level of expressed mRNA in the presence of chemical substance/The level of expressed mRNA in the absence of chemical substance (yeast gene YCR098C) | level of expressed mRNA in the presence/in the absence of chemical substance (yeast gene YDR073W) | level of expressed mRNA in the presence/in the absence of chemical substance (yeast gene YDR277C) | level of expressed mRNA in the presence/in the absence of chemical substance (yeast gene YER015W) | The level of expressed mRNA in the presence of chemical substance/The level of expressed mRNA in the absence of chemical substance (yeast gene YIL167W) | The level of expressed mRNA in the presence of chemical substance/The level of expressed mRNA in the absence of chemical substance (yeast gene YJL068C)
2.3: The level of expressed mRNA in the presence of chemical substance/The level of expressed mRNA in the absence of chemical substance (yeast gene YJL031C)
1.7: The level of expressed mRNA in the presence of chemical substance/The level of expressed mRNA in the absence of chemical substance (yeast gene YBR183W) | The level of expressed mRNA in the presence of chemical substance/The level of expressed mRNA in the absence of chemical substance (yeast gene YJR155W)
1.9: level of expressed mRNA in the presence/in the absence of chemical substance (yeast gene YHR210C)
1.0: The level of expressed mRNA in the presence of chemical substance/The level of expressed mRNA in the absence of chemical substance (yeast gene YBR222C) | The level of expressed mRNA in the presence of chemical substance/The level of expressed mRNA in the absence of chemical substance (yeast gene YER069W) | The level of expressed mRNA in the presence of chemical substance/The level of expressed mRNA in the absence of chemical substance (yeast gene YGL209W) | The level of expressed mRNA in the presence of chemical substance/The level of expressed mRNA in the absence of chemical substance (yeast gene YIR036C) | The level of expressed mRNA in the presence of chemical substance/The level of expressed mRNA in the absence of chemical substance (yeast gene YJL172W)
1.3: The level of expressed mRNA in the presence of chemical substance/The level of expressed mRNA in the absence of chemical substance (yeast gene YCL009C) | level of expressed mRNA in the presence/in the absence of chemical substance (yeast gene YCR010C) | The level of expressed mRNA in the presence of chemical substance/The level of expressed mRNA in the absence of chemical substance (yeast gene YIL154C)
0.3: level of expressed mRNA in the presence/in the absence of chemical substance (yeast gene YCR034W)
0.5: The level of expressed mRNA in the presence of chemical substance/The level of expressed mRNA in the absence of chemical substance (yeast gene YDR380W) | The level of expressed mRNA in the presence of chemical substance/The level of expressed mRNA in the absence of chemical substance (yeast gene YDR497C) | level of expressed mRNA in the presence/in the absence of chemical substance (yeast gene YER081W) | level of expressed mRNA in the presence/in the absence of chemical substance (yeast gene YJR143C)
1.1: level of expressed mRNA in the presence/in the absence of chemical substance (yeast gene YBR003W) | level of expressed mRNA in the presence/in the absence of chemical substance (yeast gene YBR011C) | level of expressed mRNA in the presence/in the absence of chemical substance (yeast gene YDR345C) | The level of expressed mRNA in the presence of chemical substance/The level of expressed mRNA in the absence of chemical substance (yeast gene YGR282C)
5.5: The level of expressed mRNA in the presence of chemical substance/The level of expressed mRNA in the absence of chemical substance (yeast gene YFL014W)
0.4: The level of expressed mRNA in the presence of chemical substance/The level of expressed mRNA in the absence of chemical substance (yeast gene YBR029C) | The level of expressed mRNA in the presence of chemical substance/The level of expressed mRNA in the absence of chemical substance (yeast gene YHR137W)
1.4: The level of expressed mRNA in the presence of chemical substance/The level of expressed mRNA in the absence of chemical substance (yeast gene YDR019C) | level of expressed mRNA in the presence/in the absence of chemical substance (yeast gene YDR284C) | The level of expressed mRNA in the presence of chemical substance/The level of expressed mRNA in the absence of chemical substance (yeast gene YFL056C) | level of expressed mRNA in the presence/in the absence of chemical substance (yeast gene YGL115W) | The level of expressed mRNA in the presence of chemical substance/The level of expressed mRNA in the absence of chemical substance (yeast gene YGR037C) | The level of expressed mRNA in the presence of chemical substance/The level of expressed mRNA in the absence of chemical substance (yeast gene YGR256W) | level of expressed mRNA in the presence/in the absence of chemical substance (yeast gene YGR288W) | The level of expressed mRNA in the presence of chemical substance/The level of expressed mRNA in the absence of chemical substance (yeast gene YHR176W)
2.1: The level of expressed mRNA in the presence of chemical substance/The level of expressed mRNA in the absence of chemical substance (yeast gene YBR256C) | The level of expressed mRNA in the presence of chemical substance/The level of expressed mRNA in the absence of chemical substance (yeast gene YJR148W)
2.2: The level of expressed mRNA in the presence of chemical substance/The level of expressed mRNA in the absence of chemical substance (yeast gene YGR194C) | The level of expressed mRNA in the presence of chemical substance/The level of expressed mRNA in the absence of chemical substance (yeast gene YIL155C)
2.8: The level of expressed mRNA in the presence of chemical substance/The level of expressed mRNA in the absence of chemical substance (yeast gene YER053C)
1.5: level of expressed mRNA in the presence/in the absence of chemical substance (yeast gene YDR050C) | level of expressed mRNA in the presence/in the absence of chemical substance (yeast gene YJL167W) | level of expressed mRNA in the presence/in the absence of chemical substance (yeast gene YJL216C)
13.4: The level of expressed mRNA in the presence of chemical substance/The level of expressed mRNA in the absence of chemical substance (yeast gene YCL064C)
0.7: level of expressed mRNA in the presence/in the absence of chemical substance (yeast gene YBR020W) | The level of expressed mRNA in the presence of chemical substance/The level of expressed mRNA in the absence of chemical substance (yeast gene YBR023C) | level of expressed mRNA in the presence/in the absence of chemical substance (yeast gene YEL063C) | The level of expressed mRNA in the presence of chemical substance/The level of expressed mRNA in the absence of chemical substance (yeast gene YGL022W) | level of expressed mRNA in the presence/in the absence of chemical substance (yeast gene YGR191W) | level of expressed mRNA in the presence/in the absence of chemical substance (yeast gene YJL121C) | level of expressed mRNA in the presence/in the absence of chemical substance (yeast gene YJR077C)
1.6: The level of expressed mRNA in the presence of chemical substance/The level of expressed mRNA in the absence of chemical substance (yeast gene YER026C) | The level of expressed mRNA in the presence of chemical substance/The level of expressed mRNA in the absence of chemical substance (yeast gene YER178W) | The level of expressed mRNA in the presence of chemical substance/The level of expressed mRNA in the absence of chemical substance (yeast gene YGL248W) | The level of expressed mRNA in the presence of chemical substance/The level of expressed mRNA in the absence of chemical substance (yeast gene YHR111W) | The level of expressed mRNA in the presence of chemical substance/The level of expressed mRNA in the absence of chemical substance (yeast gene YHR174W) | The level of expressed mRNA in the presence of chemical substance/The level of expressed mRNA in the absence of chemical substance (yeast gene YIL045W) | The level of expressed mRNA in the presence of chemical substance/The level of expressed mRNA in the absence of chemical substance (yeast gene YIL107C)
0.6: The level of expressed mRNA in the presence of chemical substance/The level of expressed mRNA in the absence of chemical substance (yeast gene YAL012W) | level of expressed mRNA in the presence/in the absence of chemical substance (yeast gene YDR178W) | level of expressed mRNA in the presence/in the absence of chemical substance (yeast gene YDR400W) | The level of expressed mRNA in the presence of chemical substance/The level of expressed mRNA in the absence of chemical substance (yeast gene YFL030W) | The level of expressed mRNA in the presence of chemical substance/The level of expressed mRNA in the absence of chemical substance (yeast gene YGR055W)
3.9: The level of expressed mRNA in the presence of chemical substance/The level of expressed mRNA in the absence of chemical substance (yeast gene YDR516C)
0.9: The level of expressed mRNA in the presence of chemical substance/The level of expressed mRNA in the absence of chemical substance (yeast gene YAL038W) | The level of expressed mRNA in the presence of chemical substance/The level of expressed mRNA in the absence of chemical substance (yeast gene YCR048W) | level of expressed mRNA in the presence/in the absence of chemical substance (yeast gene YDR123C) | The level of expressed mRNA in the presence of chemical substance/The level of expressed mRNA in the absence of chemical substance (yeast gene YDR502C) | The level of expressed mRNA in the presence of chemical substance/The level of expressed mRNA in the absence of chemical substance (yeast gene YER096W) | level of expressed mRNA in the presence/in the absence of chemical substance (yeast gene YER120W) | The level of expressed mRNA in the presence of chemical substance/The level of expressed mRNA in the absence of chemical substance (yeast gene YFL031W) | level of expressed mRNA in the presence/in the absence of chemical substance (yeast gene YGL012W) | level of expressed mRNA in the presence/in the absence of chemical substance (yeast gene YGR096W) | level of expressed mRNA in the presence/in the absence of chemical substance (yeast gene YHR123W) | The level of expressed mRNA in the presence of chemical substance/The level of expressed mRNA in the absence of chemical substance (yeast gene YJL219W)
1.8: The level of expressed mRNA in the presence of chemical substance/The level of expressed mRNA in the absence of chemical substance (yeast gene YFL057C) | The level of expressed mRNA in the presence of chemical substance/The level of expressed mRNA in the absence of chemical substance (yeast gene YJL099W)
0.8: level of expressed mRNA in the presence/in the absence of chemical substance (yeast gene YDR408C) | level of expressed mRNA in the presence/in the absence of chemical substance (yeast gene YDR483W) | level of expressed mRNA in the presence/in the absence of chemical substance (yeast gene YFL011W) | level of expressed mRNA in the presence/in the absence of chemical substance (yeast gene YGL205W) | level of expressed mRNA in the presence/in the absence of chemical substance (yeast gene YGR204W) | level of expressed mRNA in the presence/in the absence of chemical substance (yeast gene YHR025W) | level of expressed mRNA in the presence/in the absence of chemical substance (yeast gene YIL006W) | The level of expressed mRNA in the presence of chemical substance/The level of expressed mRNA in the absence of chemical substance (yeast gene YIR034C) | The level of expressed mRNA in the presence of chemical substance/The level of expressed mRNA in the absence of chemical substance (yeast gene YJR137C)
2.0: The level of expressed mRNA in the presence of chemical substance/The level of expressed mRNA in the absence of chemical substance (yeast gene YFR047C)
